Assay results reported in patent publication US6653081B2, “Methods for monitoring antiretroviral therapy and guiding therapeutic decision in the treatment of HIV/AIDS” (ViroLogic, Inc., priority 2000, dated 2003).

Experiments:
Type in all cases: cell-based, HIV
[1] = system: RTV-010835; assay: Phenotypic susceptibility assay, RTV-010835; settings: patient CCTG-2165, week 15; K103N and M230L present
Description: The resistance test vectors containing a functional luciferase gene cassette were constructed and host cells were transfected with the resistance test vector DNA. The resistant test vectors contained patient-derived reverse transcriptase and protease sequences that were either susceptible or resistant to the antiretroviral agents, such as nucleoside reverse transcriptase inhibitors, (NRTIs) non-nucleoside reverse transcriptase inhibitors […] protease inhibitors. The resistance test vector viral particles produced by transfecting the resistance test vector DNA into host cells, either in the presence or absence of PRIs, were used to infect target host cells grown either in the absence of NRTIs or NNRTIs, or in the presence of increasing concentrations of the drug. The amount of luciferase activity produced in infected target host cells in the presence of varying concentrations of drug was compared to the amount of luciferase produced in infected target host cells in the absence of drug. […] The IC50 values were determined by plotting percent drug inhibition vs. log10 drug concentration. Stimulation of viral replication was measured as the percent increase in luciferase activity detected when infection occurs in the presence of drug as compared to in the absence of drug.
Host cells were seeded in 10-cm-diameter dishes and were transfected several days after plating with resistance test vector plasmid DNA and the envelope expression vector. […] HIV capsid protein (p24) levels in the harvested cell culture media were determined by an EIA method as described by the manufacturer (SAIC; Frederick, Md.). […] The inhibitory effect of the drug was determined using the following equation: […]
where RLUluc [drug] is the Relative Light Unit of luciferase activity in infected cells in the presence of drug, and RLUluc is the Relative Light Unit of luciferase activity in infected cells in the absence of drug. […] The percent luciferase stimulation is the negative of the % inhibition calculated using the formula above. […]

[2] = system: RTV-014451; assay: Phenotypic susceptibility assay, RTV-014451; settings: patient 014451, week 32; for decrease in susceptibility: K101E, V106M, G190A on 241 backbone
Description: (§1) The resistance test vectors containing a functional luciferase gene cassette were constructed and host cells were transfected with the resistance test vector DNA. The resistant test vectors contained patient-derived reverse transcriptase and protease sequences that were either susceptible or resistant to the antiretroviral agents, such as nucleoside reverse transcriptase inhibitors, (NRTIs) non-nucleoside reverse transcriptase inhibitors […] protease inhibitors. The resistance test vector viral particles produced by transfecting the resistance test vector DNA into host cells, either in the presence or absence of PRIs, were used to infect target host cells grown either in the absence of NRTIs or NNRTIs, or in the presence of increasing concentrations of the drug. The amount of luciferase activity produced in infected target host cells in the presence of varying concentrations of drug was compared to the amount of luciferase produced in infected target host cells in the absence of drug. “Drug resistance” was measured as the amount of drug required to inhibit by 50% the luciferase activity detected in the absence of drug (inhibitory concentration 50%, IC50). The IC50 values were determined by plotting percent drug inhibition vs. log10 drug concentration. Stimulation of viral replication was measured as the percent increase in luciferase activity detected when infection occurs in the presence of drug as compared to in the absence of drug.
(§2) Host cells were seeded in 10-cm-diameter dishes and were transfected several days after plating with resistance test vector plasmid DNA and the envelope expression vector. Transfections were performed using a calcium-phosphate precipitation procedure. The cell culture media containing the DNA precipitate was replaced with fresh medium, from one to 24 hours, after transfection. Cell culture media containing resistance test vector viral particles was harvested one to four days after transfection and was passed through a […] filter before being used to infect target host cells, or being stored at −80° C. HIV capsid protein (p24) levels in the harvested cell culture media were determined by an EIA method as described by the manufacturer (SAIC; Frederick, Md.). Before infection, target cells (293 and 293/T) were plated in cell culture media. Control infections were performed using cell culture media from mock transfections (no DNA) or transfections containing the resistance test vector plasmid DNA without the envelope expression plasmid. One to three or more days after infection, the media was removed and cell lysis buffer (Promega) was added to each well. Cell lysates were assayed for luciferase activity (FIG. 3). The inhibitory effect of the drug was determined using the following equation:
(§3) % luciferase inhibition=1−(RLUluc[drug]÷RLUluc)×100
(§4) where RLUluc [drug] is the Relative Light Unit of luciferase activity in infected cells in the presence of drug, and RLUluc is the Relative Light Unit of luciferase activity in infected cells in the absence of drug. IC50values were obtained from the sigmoidal curves that were generated from the data by plotting the percent inhibition of luciferase activity vs. the log10 drug concentration. The percent luciferase stimulation is the negative of the % inhibition calculated using the formula above.
Resistance test vectors were constructed as described in Example 1 from virus samples obtained from an individual patient at two separate time points separated by a 32-week period. The prior and current treatment regimens are unknown. Isolation of viral RNA and RT/PCR was used to generate patient derived segments (PDS) that comprised viral sequences coding for all of PR and aa […] of RT from […]. The PDS were inserted into an indicator gene viral vector to generate resistance test vectors designated RTV-014459 and RTV-014451. […]

[3] = system: RTV-012123; assay: Phenotypic susceptibility assay, RTV-012123; settings: patient 012123; for decrease in susceptibility: 245 with multiple other mutations
Description: as §1, §2, §3, §4
(§5) A resistance test vector was constructed as described in Example 1 from a virus sample obtained from patient 012123. The prior and current treatment regimens are unknown. Isolation of viral RNA and RT/PCR was used to generate a patient derived segment (PDS) that comprised viral sequences coding for all of PR and aa 1-313 of RT. The PDS were inserted into an indicator gene viral vector to generate a resistance test vector designated RTV-012123. RTV-012123 was then tested in a phenotypic assay to determine accurately and quantitatively the level of susceptibility to a panel of anti-retroviral drugs. […]

[4] = system: RTV-010829; assay: Phenotypic susceptibility assay, RTV-010829; settings: patient 10829; for decrease in susceptibility: K103N, V245E, I270M
Description: as §1, §2, §3, §4
as §5, with “10829.” for “012123.”, “RTV-010829. RTV-010829” for “RTV-012123. RTV-012123”

[5] = system: RTV-010829/245V-297E; assay: Phenotypic susceptibility assay, RTV-010829/245V-297E; settings: for drug-dependent stimulation of viral replication: RTV-010829 with V245E to E297K reverted; for reductions in susceptibility compared to wild type control RTV: RTV-010829 with V245E, I270M, V276I, R277K, V292I, V293I, E297K reverted
Description: as §1, §2, §3, §4
A resistance test vector containing all of the mutations present in RTV-010829 except for the V245E mutation (RTV-010829/245V) was constructed and tested using the phenotypic assay described earlier. The results were compared to those determined using the parent RTV-010829. We determined the pattern of phenotypic susceptibility to the NNRTIs, delavirdine, nevirapine and efavirenz, in the reverted vector RTV-010829/245V. […] A resistance test vector containing all of the mutations present in RTV-010829 except for the I270M (RTV-010829/270I) was constructed and tested using the phenotypic assay described earlier. […]

[6] = system: RTV-1033-3/106V; assay: Phenotypic susceptibility assay, RTV-1033-3/106V; settings: RTV-1033-3 with V106A reverted
Description: as §1, §2, §3, §4
A resistance test vector containing all of the mutations present in RTV-1033-3 except for V106A (RTV-1033-3/106V) was constructed and tested using the phenotypic assay described earlier. The results were compared to those determined using the parent RTV-1033-3. We determined the pattern of phenotypic susceptibility to the NNRTIs, delavirdine, nevirapine and efavirenz, in the reverted vector, RTV-1033-3/106V.

Row | Structure (SMILES) | decrease in susceptibility [1] [fold] | drug-dependent stimulation of viral replication [2] [%] | decrease in susceptibility [2] [fold] | drug-dependent stimulation of viral replication [3] [%] | decrease in susceptibility [3] [fold] | drug-dependent stimulation of viral replication [4] [%] | decrease in susceptibility [4] [fold] | drug-dependent stimulation of viral replication [5] | reductions in susceptibility compared to wild type control RTV [5] [fold] | drug-dependent stimulation of viral replication [6] | reduction in susceptibility compared to wild type control RTV [6] | increase in susceptibility (hyper-susceptibility) compared to wild type control RTV [6] [fold]
1 | O=C1Nc2ccc(Cl)cc2[C@@](C#CC2CC2)(C(F)(F)F)O1 [efavirenz] | 270 | ~70 | > 450 | ~70 | > 450 | ~80 | > 450 | no drug-dependent stimulation | 76 | ~20% | no reduction | 
2 | CC(C)Nc1cccnc1N1CCN(C(=O)c2cc3cc(NS(C)(=O)=O)ccc3[nH]2)CC1 [delavirdine] | > 250 | ~90 | 41 | ~80 | > 250 | ~100 | > 250 | no drug-dependent stimulation | 198 | no drug-dependent stimulation |  | 20
3 | Cc1ccnc2c1NC(=O)c1cccnc1N2C1CC1 [nevirapine] | > 600 | ~100 | > 600 | ~20 | > 600 | ~100 | > 600 | no drug-dependent stimulation | 233 | ~40% | 9 fold | 
